Laboratory results taken from patent US20130060024A1, “Compounds useful for treating neurodegenerative disorders” (SATORI PHARMACEUTICALS, INC., priority 2011, published 2013).
Like-named read-outs stand apart in the source and are kept apart here.

What was measured:
Type in all cases: cell-based
Conditions in all cases: Homo sapiens
Aβ-42 = Aβ-42 MSD 3-PLEX ELISA, conditioned media of 2B7 cells
Description: (§1) Assays were conducted to determine the ability of a Compound of Formula I to modulate […], […], and Aβ-38. Human (6E10) Ab 3-PLEX ELISA kits were purchased from Meso Scale Discovery Labs, 9328 Gaither Road, Gaithersburg, Md. 20877 (Catalog Number […]-3). Plates with capture antibodies were blocked for 1-2 hours at room temperature with 150 μL of the manufactures blocking reagent. Cultured 2B7 cells in 96 well plate with 250 μL of media per well until confluent; Prepared serial dilutions of compounds in DMSO at 100× the final desired concentration; Washed wells with 2B7 cells 1× with 250 μL of media; Diluted DMSO stocks 1:100 into media: Added 250 μL of media containing compounds (1% DMSO) to wells with 2B7 cells for 5 hours at 37° C. Diluted conditioned media: 1 part media with 1% DMSO and 1 part blocking buffer; 150 μL of the 250 μL of conditioned media were used. Seven point standard curve samples were prepared that contained Aβ-42, Aβ-40, and Aβ-38. The highest concentration of Aβ-42 and Aβ-38 was 3,000 pg/mL and the highest concentration of Aβ-40 was 10,000 pg/mL. Subsequent serial dilutions were 1:3 and the final composition of each sample was 1 part blocking buffer and 1 part cell medium containing 1% DMSO. Blocked plates are washed 5× with MSD wash buffer with a plate washer; 25 μL of detection antibody and blocker G reagent in MSD blocking solution was added; 25 μL of samples (1 part conditioned media containing 1% DMSO and 1 part MSD blocking buffer) were then added; Plates were incubated overnight at 4 degrees C. or 2 hours at room temperature. Washed wells 5× with MSD wash buffer; Added 150 μL 2×MSD read buffer; Read with MSD imager. Aβ peptide levels for each peptide were calculated from the standard curve using the MSD software provided with the MSD 2400 Imager. Percent vehicle values for each compound dosage were then calculated and fit to a 4 parameter curve generating IC50 values.

Aβ-38 = Aβ-38 MSD 3-PLEX ELISA, conditioned media of 2B7 cells
Description: as §1

Aβ-40 = Aβ-40 MSD 3-PLEX ELISA, conditioned media of 2B7 cells
Description: as §1

[1] = 5 h, read-out: Aβ 42 DR IC50 Inflection
[2] = 2B7 cells, 5 hours at 37° C., 1% DMSO, read-out: Aβ 42 IC50
[3] = 2B7 cells, 5 hours at 37° C., 1% DMSO, read-out: Aβ 38 IC50
[4] = 2B7 cells, 5 hours at 37° C., 1% DMSO, read-out: Aβ 40 IC50
[5] = 5 h, read-out: Aβ 38 DR IC50 Inflection
[6] = 5 h, read-out: Aβ 40 DR IC50 Inflection

Compound	IC50 (Aβ-42; [1]) [nM]	IC50 (Aβ-42; [2]) [nM]	IC50 (Aβ-38; [3]) [nM]	IC50 (Aβ-40; [4]) [nM]	IC50 (Aβ-38; [5]) [nM]	IC50 (Aβ-40; [6]) [nM]
CCO[C@@H]([C@H]1C[C@@H](C)[C@H]2[C@H](O1)[C@H](O)[C@@]1(C)[C@@H]3CC[C@H]4C(C)(C)[C@@H](OC(=O)NCCN5CCC5)CC[C@@]45C[C@@]35CC[C@]21C)C(C)(C)O [Compound I-16]	100 to 500	100 to 500				
CCO[C@@H]([C@H]1C[C@@H](C)[C@H]2[C@H](O1)[C@H](O)[C@@]1(C)[C@@H]3CC[C@H]4C(C)(C)[C@@H](OC(=O)NCCN5CCN(C6COC6)CC5)CC[C@@]45C[C@@]35CC[C@]21C)C(C)(C)O [Compound I-17]	100 to 500	100 to 500	100 to 500	1000 to 5000		
CCO[C@@H]([C@H]1C[C@@H](C)[C@H]2[C@H](O1)[C@H](O)[C@@]1(C)[C@@H]3CC[C@H]4C(C)(C)[C@@H](OC(=O)NCCN5CCOCC5)CC[C@@]45C[C@@]35CC[C@]21C)C(C)(C)O [Compound I-12]	100 to 500	100 to 500	1000 to 5000	> 5000		
CCO[C@@H]([C@H]1C[C@@H](C)[C@H]2[C@H](O1)[C@H](O)[C@@]1(C)[C@@H]3CC[C@H]4C(C)(C)[C@@H](OC(=O)N5CCN(CCOC)CC5)CC[C@@]45C[C@@]35CC[C@]21C)C(C)(C)O [Compound I-7]	100 to 500	100 to 500	501 to 1000			
CCO[C@@H]([C@H]1C[C@@H](C)[C@H]2[C@H](O1)[C@H](O)[C@@]1(C)[C@@H]3CC[C@H]4C(C)(C)[C@@H](OC(=O)N5CC(NC)C5)CC[C@@]45C[C@@]35CC[C@]21C)C(C)(C)O [Compound I-9]	100 to 500	100 to 500	100 to 500	1000 to 5000	100 to 500	
CCO[C@@H]([C@H]1C[C@@H](C)[C@H]2[C@H](O1)[C@H](O)[C@@]1(C)[C@@H]3CC[C@H]4C(C)(C)[C@@H](OC(=O)N5CCN(CC(=O)O)CC5)CC[C@@]45C[C@@]35CC[C@]21C)C(C)(C)O [Compound I-5]	100 to 500	100 to 500		> 5000		
CCO[C@@H]([C@H]1C[C@@H](C)[C@H]2[C@H](O1)[C@H](O)[C@@]1(C)[C@@H]3CC[C@H]4C(C)(C)[C@@H](OC(=O)NCCN(C)C)CC[C@@]45C[C@@]35CC[C@]21C)C(C)(C)O [Compound I-11]	100 to 500	100 to 500				
CCO[C@@H]([C@H]1C[C@@H](C)[C@H]2[C@H](O1)[C@H](O)[C@@]1(C)[C@@H]3CC[C@H]4C(C)(C)[C@@H](OC(=O)N5CC(N6CC(OC)C6)C5)CC[C@@]45C[C@@]35CC[C@]21C)C(C)(C)O [Compound I-21]	100 to 500	100 to 500	501 to 1000			
CCO[C@@H]([C@H]1C[C@@H](C)[C@H]2[C@H](O1)[C@H](O)[C@@]1(C)[C@@H]3CC[C@H]4C(C)(C)[C@@H](OC(=O)NCCN5CC(O)C5)CC[C@@]45C[C@@]35CC[C@]21C)C(C)(C)O [Compound I-15]	100 to 500	100 to 500				
CCO[C@@H]([C@H]1C[C@@H](C)[C@H]2[C@H](O1)[C@H](O)[C@@]1(C)[C@@H]3CC[C@H]4C(C)(C)[C@@H](OC(=O)N5CCN(C6COC6)CC5)CC[C@@]45C[C@@]35CC[C@]21C)C(C)(C)O [Compound I-4]	100 to 500	100 to 500	1000 to 5000	> 5000		
CCO[C@@H]([C@H]1C[C@@H](C)[C@H]2[C@H](O1)[C@H](O)[C@@]1(C)[C@@H]3CC[C@H]4C(C)(C)[C@@H](OC(=O)N5CCN(C)CC5)CC[C@@]45C[C@@]35CC[C@]21C)C(C)(C)O [Compound I-8]	< 100	< 100	100 to 500	1000 to 5000	< 100	> 5000
CCO[C@@H]([C@H]1C[C@@H](C)[C@H]2[C@H](O1)[C@H](O)[C@@]1(C)[C@@H]3CC[C@H]4C(C)(C)[C@@H](OC(=O)NC5CN(C6CCC6)C5)CC[C@@]45C[C@@]35CC[C@]21C)C(C)(C)O [Compound I-22]	100 to 500	100 to 500	501 to 1000	1000 to 5000		
CCO[C@@H]([C@H]1C[C@@H](C)[C@H]2[C@H](O1)[C@H](O)[C@@]1(C)[C@@H]3CC[C@H]4C(C)(C)[C@@H](OC(=O)NC5CN(C6CN(C7CCC7)C6)C5)CC[C@@]45C[C@@]35CC[C@]21C)C(C)(C)O [Compound I-23]		100 to 500	501 to 1000			
CCO[C@@H]([C@H]1C[C@@H](C)[C@H]2[C@H](O1)[C@H](O)[C@@]1(C)[C@@H]3CC[C@H]4C(C)(C)[C@@H](OC(=O)NCCNS(=O)(=O)C(F)(F)F)CC[C@@]45C[C@@]35CC[C@]21C)C(C)(C)O [Compound I-1]		501 to 1000	1000 to 5000			
CCO[C@@H]([C@H]1C[C@@H](C)[C@H]2[C@H](O1)[C@H](O)[C@@]1(C)[C@@H]3CC[C@H]4C(C)(C)[C@@H](OC(=O)N5CCNCC5)CC[C@@]45C[C@@]35CC[C@]21C)C(C)(C)O [Compound I-10]		< 100	100 to 500			
CCO[C@@H]([C@H]1C[C@@H](C)[C@H]2[C@H](O1)[C@H](O)[C@@]1(C)[C@@H]3CC[C@H]4C(C)(C)[C@@H](OC(=O)NCCN5CCN(CC(F)F)CC5)CC[C@@]45C[C@@]35CC[C@]21C)C(C)(C)O [Compound I-24]	100 to 500	100 to 500		1000 to 5000		
CCO[C@@H]([C@H]1C[C@@H](C)[C@H]2[C@H](O1)[C@H](O)[C@@]1(C)[C@@H]3CC[C@H]4C(C)(C)[C@@H](OC(=O)NCCN5CCN(C6CCC6)CC5)CC[C@@]45C[C@@]35CC[C@]21C)C(C)(C)O [Compound I-19]	100 to 500	100 to 500				
CCO[C@@H]([C@H]1C[C@@H](C)[C@H]2[C@H](O1)[C@H](O)[C@@]1(C)[C@@H]3CC[C@H]4C(C)(C)[C@@H](OC(=O)N(C)C5CN(C)C5)CC[C@@]45C[C@@]35CC[C@]21C)C(C)(C)O [Compound I-2]	< 100	< 100	100 to 500	1000 to 5000	< 100	> 5000
CCO[C@@H]([C@H]1C[C@@H](C)[C@H]2[C@H](O1)[C@H](O)[C@@]1(C)[C@@H]3CC[C@H]4C(C)(C)[C@@H](OC(=O)N5CC(N6CCC6)C5)CC[C@@]45C[C@@]35CC[C@]21C)C(C)(C)O [Compound I-20]		< 100	100 to 500			
CCO[C@@H]([C@H]1C[C@@H](C)[C@H]2[C@H](O1)[C@H](O)[C@@]1(C)[C@@H]3CC[C@H]4C(C)(C)[C@@H](OC(=O)N(C)CC(=O)O)CC[C@@]45C[C@@]35CC[C@]21C)C(C)(C)O [Compound I-6]		501 to 1000				
CCO[C@@H]([C@H]1C[C@@H](C)[C@H]2[C@H](O1)[C@H](O)[C@@]1(C)[C@@H]3CC[C@H]4C(C)(C)[C@@H](OC(=O)NCCN5CC(OC)C5)CC[C@@]45C[C@@]35CC[C@]21C)C(C)(C)O [Compound I-13]	100 to 500	100 to 500	1000 to 5000			
CCO[C@@H]([C@H]1C[C@@H](C)[C@H]2[C@H](O1)[C@H](O)[C@@]1(C)[C@@H]3CC[C@H]4C(C)(C)[C@@H](OC(=O)NCCN5CC(F)C5)CC[C@@]45C[C@@]35CC[C@]21C)C(C)(C)O [Compound I-14]	100 to 500	100 to 500				
CCO[C@@H]([C@H]1C[C@@H](C)[C@H]2[C@H](O1)[C@H](O)[C@@]1(C)[C@@H]3CC[C@H]4C(C)(C)[C@@H](OC(=O)N5CCNC(C(F)(F)F)C5)CC[C@@]45C[C@@]35CC[C@]21C)C(C)(C)O (stereo partly shown) [Compound I-3]		100 to 500	1000 to 5000			
CCO[C@@H]([C@H]1C[C@@H](C)[C@H]2[C@H](O1)[C@H](O)[C@@]1(C)[C@@H]3CC[C@H]4C(C)(C)[C@@H](OC(=O)NCCN5CC(F)(F)C5)CC[C@@]45C[C@@]35CC[C@]21C)C(C)(C)O [Compound I-18]	100 to 500	100 to 500	501 to 1000	> 5000		
